# Active and inactive are the calls of the source. The calls are words filed in the database; no cut-off is given here.
# Legend:
# [1] = Drug accumulation in African green monkey Vero cells assessed as subcellular localization in endoplasmic reticulum at 20 uM incubated for 1 to 24 hr by Me-THP-Naph staining based confocal scanning laser microscopic analysis; format: ADME, cell-based; conditions: chlorocebus sabaeus, time 1-24 hrs
# [2] = system: Human alphaherpesvirus 1; assay: Antiviral activity against HSV-1 infected in African green monkey Vero cells assessed as reduction in viral growth by measuring relative cell viability at 20 uM incubated for 72 hrs by MTT assay; format: functional
# [3] = Fluorescence property of compound in crystal assessed as fluorescence quantum yield in presence of fluorescein by spectrophotometric analysis; format: physicochemical
# [4] = Fluorescence property of compound in cyclohexane assessed as fluorescence quantum yield in presence of fluorescein by spectrophotometric analysis; format: physicochemical
# [5] = Fluorescence property of compound in H2O assessed as fluorescence quantum yield in presence of fluorescein by spectrophotometric analysis; format: physicochemical
# [6] = Fluorescence property of compound in crystal assessed as maximum emission wavelength in presence of fluorescein by spectrophotometric analysis; format: physicochemical
# [7] = Fluorescence property of compound in cyclohexane assessed as maximum emission wavelength in presence of fluorescein by spectrophotometric analysis; format: physicochemical
# [8] = Fluorescence property of compound in H2O assessed as maximum emission wavelength in presence of fluorescein by spectrophotometric analysis; format: physicochemical
# [9] = system: Human alphaherpesvirus 1; assay: Antiviral activity against HSV-1 infected in African green monkey Vero cells assessed as reduction in viral growth incubated for 72 hrs by MTT assay; format: functional, organism-based; conditions: Human alphaherpesvirus 1, Vero
# [10] = system: Human alphaherpesvirus 2; assay: Antiviral activity against HSV-2 infected in African green monkey Vero cells assessed as reduction in viral growth incubated for 72 hrs by MTT assay; format: functional, organism-based; conditions: Human alphaherpesvirus 2, Vero
# [11] = system: Human alphaherpesvirus 2; assay: Antiviral activity against ACV-resistant HSV-2 infected in African green monkey Vero cells assessed as reduction in viral growth incubated for 72 hrs by MTT assay; format: functional, organism-based; conditions: Human alphaherpesvirus 2, Vero
# [12] = system: Human alphaherpesvirus 1; assay: Antiviral activity against HSV-1 infected in African green monkey Vero cells assessed as downregulation of viral gD protein expression at 5 to 20 uM by Western blotting analysis; format: functional, organism-based; conditions: dose 5-20 µM
# [13] = system: Human alphaherpesvirus 1; assay: Antiviral activity against HSV-1 infected in African green monkey Vero cells assessed as downregulation of viral gD mRNA expression at 5 to 20 uM by RT-qPCR analysis; format: functional, organism-based; conditions: dose 5-20 µM
# [14] = Cytotoxicity against human HEK293T cells assessed as cell viability at 80 uM incubated for 48 hrs by MTT assay relative to control; format: toxicity, cell-based, HEK-293T; conditions: read-out: Activity
# [15] = system: HEK-293T; assay: Cytotoxicity against human HEK293T cells at 5 to 80 uM incubated for 48 hrs by MTT assay; format: toxicity, cell-based; conditions: dose 5-80 µM
# [16] = Cytotoxicity against human HEK293T cells incubated for 48 hrs by MTT assay; format: toxicity, cell-based, HEK-293T
# [17] = system: Human alphaherpesvirus 1; assay: Antiviral activity against HSV-1 infected in African green monkey Vero cells assessed as protection of cellular morphology incubated for 24 hrs by CPE based microscopic analysis; format: functional, organism-based
# [18] = system: Human alphaherpesvirus 2; assay: Antiviral activity against HSV-2 infected in African green monkey Vero cells assessed as protection of cellular morphology incubated for 24 hrs CPE based microscopic analysis; format: functional, organism-based
# [19] = system: Human alphaherpesvirus 1; assay: Antiviral activity against HSV-1 infected in African green monkey Vero cells assessed as downregulation of viral gD mRNA expression incubated for 48 hrs by RT-qPCR analysis; format: functional, organism-based
# [20] = system: Human alphaherpesvirus 1; assay: Antiviral activity against HSV-1 infected in African green monkey Vero cells assessed as downregulation of viral VP16 mRNA expression incubated for 48 hrs by RT-qPCR analysis; format: functional, organism-based
# [21] = system: Human alphaherpesvirus 1; assay: Antiviral activity against HSV-1 infected in African green monkey Vero cells assessed as downregulation of viral gD protein expression at 10 uM incubated for 48 hrs by Western blotting analysis; format: functional, organism-based
# [22] = system: Human alphaherpesvirus 2; assay: Antiviral activity against ACV-resistant HSV-2 infected in African green monkey Vero cells assessed as downregulation of viral gD protein expression at 20 uM incubated for 48 hrs by Western blotting analysis; format: functional, organism-based
# [23] = system: Human alphaherpesvirus 1; assay: Antiviral activity against HSV-1 infected in African green monkey Vero cells assessed as downregulation of viral gD mRNA expression at 20 uM pre-treated with compound for 1 hr followed by viral infection by RT-qPCR analysis; format: functional, organism-based
# [24] = system: Human alphaherpesvirus 1; assay: Antiviral activity against HSV-1 infected in African green monkey Vero cells assessed as downregulation of viral VP16 mRNA expression at 20 uM pre-treated with compound for 1 hr followed by viral infection by RT-qPCR analysis; format: functional, organism-based
# [25] = system: Human alphaherpesvirus 1; assay: Antiviral activity against HSV-1 infected in African green monkey Vero cells assessed as downregulation of viral gD mRNA expression at 20 uM incubated under co-treatment condition for 1 hr by RT-qPCR analysis; format: functional, organism-based
# [26] = system: Human alphaherpesvirus 1; assay: Antiviral activity against HSV-1 infected in African green monkey Vero cells assessed as downregulation of viral VP16 mRNA expression at 20 uM incubated under co-treatment condition for 1 hr by RT-qPCR analysis; format: functional, organism-based
# [27] = system: Human alphaherpesvirus 1; assay: Antiviral activity against HSV-1 infected in African green monkey Vero cells assessed as downregulation of viral gD mRNA expression at 20 uM pre-infected with virus followed by compound treatment by RT-qPCR analysis; format: functional, organism-based
# [28] = system: Human alphaherpesvirus 1; assay: Antiviral activity against HSV-1 infected in African green monkey Vero cells assessed as downregulation of viral VP16 mRNA expression at 20 uM pre-infected with virus followed by compound treatment by RT-qPCR analysis; format: functional, organism-based
# [29] = system: Human alphaherpesvirus 1; assay: Antiviral activity against HSV-1 infected in African green monkey Vero cells assessed as downregulation of viral gD mRNA expression at 20 uM incubated under co-plus post treatment condition for 1 hr by RT-qPCR analysis; format: functional, organism-based
# [30] = system: Human alphaherpesvirus 1; assay: Antiviral activity against HSV-1 infected in African green monkey Vero cells assessed as downregulation of viral VP16 mRNA expression at 20 uM incubated under co-plus post treatment condition for 1 hr by RT-qPCR analysis; format: functional, organism-based
# [31] = system: Human alphaherpesvirus 1; assay: Antiviral activity against HSV-1 infected in African green monkey Vero cells assessed as downregulation of viral gD protein expression at 20 uM pre-treated with compound for 1 hr followed by viral infection by Western blotting analysis; format: functional, organism-based
# [32] = system: Human alphaherpesvirus 1; assay: Antiviral activity against HSV-1 infected in African green monkey Vero cells assessed as downregulation of viral ICP8 protein expression at 20 uM pre-treated with compound for 1 hr followed by viral infection by Western blotting analysis; format: functional, organism-based
# [33] = system: Human alphaherpesvirus 1; assay: Antiviral activity against HSV-1 infected in African green monkey Vero cells assessed as reduction in viral plaque formation at 20 uM pre-treated with compound for 36 to 48 hrs followed by viral infection by crystal violet staining based assay; format: functional, organism-based; conditions: time 36-48 hrs
# [34] = system: Human alphaherpesvirus 1; assay: Antiviral activity against HSV-1 infected in African green monkey Vero cells assessed as downregulation of viral gD protein expression at 20 uM measured after 2 hrs by Western blotting analysis; format: functional, organism-based
# [35] = system: Human alphaherpesvirus 1; assay: Antiviral activity against HSV-1 infected in African green monkey Vero cells assessed as downregulation of viral ICP8 protein expression at 20 uM measured after 2 hrs by Western blotting analysis; format: functional, organism-based
# [36] = system: Human alphaherpesvirus 1; assay: Antiviral activity against HSV-1 infected in African green monkey Vero cells assessed as reduction in viral growth by measuring relative cell viability at 5 uM incubated for 72 hrs by MTT assay; format: functional
smiles,measurement,setting,value
CN1c2c(C#N)c(F)c(F)c(C#N)c2N(C)[C@@H]2CCCC[C@H]21,Drug uptake,[1],Active
same,Activity,[2],8%
same,Activity,[3],57.3%
same,Activity,[4],90.3%
same,Activity,[5],57.1%
same,Activity,[6],560 nm
same,Activity,[7],515 nm
same,Activity,[8],555 nm
CN1c2c(C#N)c(F)c(F)c(C#N)c2N(C)[C@H]2CCCC[C@@H]21,Drug uptake,[1],Active
same,Activity,[2],40%
same,EC50,[9],4.1 µM
same,EC50,[10],5.8 µM
same,EC50,[11],7.9 µM
same,Activity,[12],Active
same,Activity,[13],Active
same,Activity,[3],56.9%
same,Activity,[4],92.3%
same,Activity,[5],59.1%
same,Activity,[6],560 nm
same,Activity,[7],515 nm
same,Activity,[8],555 nm
CN1c2c(C#N)c3c(c(C#N)c2N(C)C2CCCCC21)OCCN3 (racemic),Activity,[2],1%
CN1c2c(C#N)c3c(c(C#N)c2N(C)C2CCCCC21)OCCO3 (racemic),Activity,[2],0%
N#Cc1c(F)c(F)c(C#N)c2c1NC1CCCCC1N2 (racemic),Activity,[2],7%
CN1c2c(C#N)c(F)c(N3CCCC3)c(C#N)c2N(C)C2CCCCC21 (racemic),Activity,[2],9%
CN1c2c(C#N)c(F)c(N3CCCCC3)c(C#N)c2N(C)C2CCCCC21 (racemic),Activity,[2],6%
CN(C)c1c(F)c(C#N)c2c(c1C#N)N(C)C1CCCCC1N2C (racemic),Activity,[2],5%
CN1CCOc2c(C#N)c3c(c(C#N)c21)N(C)C1CCCCC1N3C (racemic),Activity,[2],4%
CN1c2c(C#N)c(F)c(N3CCOCC3)c(C#N)c2N(C)C2CCCCC21 (racemic),Activity,[2],8%
CN1c2c(C#N)c(F)c(F)c(C#N)c2N(C)C2CCCCC21 (racemic),Drug uptake,[1],Active
same,"viability at 48 h, 80 µM",[14],100%
same,Activity,[2],39%
same,EC50,[9],9.2 µM
same,Activity,[15],Non-Toxic
same,EC50,[10],11 µM
same,EC50,[11],14.9 µM
same,CC50 at 48 h,[16],> 100 µM
same,Activity,[17],Dose-Dependent Effect
same,Activity,[18],Dose-Dependent Effect
same,Activity,[19],Dose-Dependent Effect
same,Activity,[20],Dose-Dependent Effect
same,Activity,[21],Active
same,Activity,[22],Active
same,Activity,[23],inactive
same,Activity,[24],inactive
same,Activity,[25],inactive
same,Activity,[26],Active
same,Activity,[27],Active
same,Activity,[28],Active
same,Activity,[29],Active
same,Activity,[30],Active
same,Activity,[31],Active
same,Activity,[32],Active
same,Activity,[33],Active
same,Activity,[34],Active
same,Activity,[35],Active
same,Activity,[3],54.4%
same,Activity,[4],91.6%
same,Activity,[5],56.2%
same,Activity,[6],558 nm
same,Activity,[7],515 nm
same,Activity,[8],555 nm
CN1c2c(F)c(C#N)c(F)c(C#N)c2N(C)C2CCCCC21 (racemic),Activity,[2],0%
CN1c2c(F)c(C#N)c(C#N)c(F)c2N(C)C2CCCCC21 (racemic),Activity,[2],3%
Nc1nc2c(ncn2COCCO)c(=O)[nH]1 [ACYCLOVIR],Activity,[36],81%

# — ChEMBL document CHEMBL5579835, “Fluorescent octahydrophenazines as novel inhibitors against herpes simplex viruses” (Eur J Med Chem, 2024)
